Test system: cos-7 cells
Test: DNA transfection: luciferase expression relative to Lipofectamine 2000
Type: cell-based
Conditions: for Luciferase expression as a percentage of that achieved using Lipofectamine 2000: 300 ng Luciferase DNA per well; for Luciferase expression as a percentage of that achieved using Lipofectamine 2000 / % of the luciferase activity obtained from the use of Lipofectamine 2000: luciferase assay after 48 hours; for % of the luciferase activity obtained from the use of Lipofectamine 2000: 300 ng DNA per well; for luciferase expression (second part of table, values relative to LIPO2000): 300 ng of DNA per well
Outline: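 cos-7 cells were transfected with 300 ng/well luciferase DNA complexed with lipid at ratios from 2.5 to 25 w/w. Bright-Glo luminescence was read after 48 hours and converted to ng luciferase by standard curve. Data are percent of the Lipofectamine 2000 control (2.5 w/w).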

Row | SMILES | Luciferase expression as a percentage of that achieved using Lipofectamine 2000 (lipid/DNA 2.5 w/w) | Luciferase expression as a percentage of that achieved using Lipofectamine 2000 (lipid/DNA 5 w/w) | Luciferase expression as a percentage of that achieved using Lipofectamine 2000 (lipid/DNA 10 w/w) | Luciferase expression as a percentage of that achieved using Lipofectamine 2000 (lipid/DNA 15 w/w) | Luciferase expression as a percentage of that achieved using Lipofectamine 2000 (lipid/DNA 20 w/w) | Luciferase expression as a percentage of that achieved using Lipofectamine 2000 (lipid/DNA 25 w/w) | other results
1 | CCCCCCCCCCCCNC(=O)CCN(CCC(=O)NCCCCCCCCCCCC)CCN(CCO)CCO [ND86] | 0.5% | 0.2% | 0.0% | 0.0% | 0.0% | 0.0% | 
2 | CCCCCCCCCCCCNC(=O)CCN(CCCN(CCO)CCO)CCC(=O)NCCCCCCCCCCCC [ND87] | 0.0% | 0.0% | 0.0% | 0.0% | 0.0% | 0.0% | 
3 | CCCCCCCCCCOC(=O)CC[N+](C)(CCCOC)CCC(=O)OCCCCCCCCCC.[I-] [QB1] | 0.4% | 0.3% | 0.4% | 0.3% | 0.4% | 0.4% | 
4 | CCCCCCCCCCOC(=O)CC[N+](C)(CCC(=O)OCCCCCCCCCC)CCC1OCCO1.[I-] [QB6] | 0.0% | 0.0% | 0.0% | 0.0% | 0.0% | 0.0% | 
5 | CCCCCCCCCCOC(=O)CC[N+](C)(CCC(=O)OCCCCCCCCCC)CC1COC(C)(C)O1.[I-] (stereo not drawn) [QB7] | 0.0% | 0.0% | 0.0% | 0.0% | 0.0% | 0.0% | 
6 | CCCCCCCCCCCCOC(=O)CC[N+](C)(CCCCO)CCC(=O)OCCCCCCCCCCCC.[I-] [QD28] |  |  | 0.1% | 0.1% |  |  | 
7 | CCCCCCCCCCCCOC(=O)CC[N+](C)(CCC(=O)OCCCCCCCCCCCC)CC[N+](C)(CCO)CCO.[I-].[I-] [QD86] |  |  | 2.0% | 2.0% |  |  | 
8 | CCCCCCCCCCCCOC(=O)CC[N+](C)(CCC[N+](C)(CCO)CCO)CCC(=O)OCCCCCCCCCCCC.[I-].[I-] [QD87] |  |  | 0.5% | 0.7% |  |  | 
9 | CCCCCCCCCCCCCCOC(=O)CC[N+](C)(CCCOC)CCC(=O)OCCCCCCCCCCCCCC.[I-] [QF1] | 0.4% | 0.3% | 0.4% | 0.3% | 0.3% | 0.3% | 
10 | CCCCCCCCCCCCCCOC(=O)CC[N+](C)(CCC(=O)OCCCCCCCCCCCCCC)CCC1OCCO1.[I-] [QF6] | 0.0% | 0.0% | 0.0% | 0.0% | 0.0% | 0.0% | 
11 | CCCCCCCCCCCCCCOC(=O)CC[N+](C)(CCC(=O)OCCCCCCCCCCCCCC)CC1COC(C)(C)O1.[I-] (stereo not drawn) [QF7] | 0.0% | 0.0% | 0.0% | 0.0% | 0.0% | 0.0% | 
12 | CCCCCCCCCCCCCCOC(=O)CC[N+](C)(CCC(=O)OCCCCCCCCCCCCCC)CCC1CCC[N+]1(C)C.[I-].[I-] (stereo not drawn) [QF77] | 0.4% | 0.4% | 0.7% | 1.3% | 2.7% | 9.9% | 
13 | CCCCCCCCCCCCCCCOC(=O)CC[N+](C)(CCCOC)CCC(=O)OCCCCCCCCCCCCCCC.[I-] [QG1] | 0.4% | 0.5% | 0.4% | 0.4% | 0.3% | 0.3% | 
14 | CCCCCCCCCCCCCCCOC(=O)CC[N+](C)(CCC(=O)OCCCCCCCCCCCCCCC)CCC1OCCO1.[I-] [QG6] | 0.0% | 0.0% | 0.0% | 0.0% | 0.0% | 0.0% | 
15 | CCCCCCCCCCCCCCCOC(=O)CC[N+](C)(CCC(=O)OCCCCCCCCCCCCCCC)CC1COC(C)(C)O1.[I-] (stereo not drawn) [QG7] | 0.4% | 0.3% | 0.5% | 0.3% | 0.4% | 0.3% | 
16 | CCCCCCCCCCCCCCCOC(=O)CC[N+](C)(CCC(=O)OCCCCCCCCCCCCCCC)CCC1CCC[N+]1(C)C.[I-].[I-] (stereo not drawn) [QG77] | 0.5% | 0.6% | 1.5% | 5.6% | 18.8% | 29.5% | 
17 | CCCCCCCCCCCCCCCOC(=O)CC[N+](C)(CCC[N+](C)(CCO)CCO)CCC(=O)OCCCCCCCCCCCCCCC [QG87] |  |  |  |  |  |  | % of the luciferase activity obtained from the use of Lipofectamine 2000 (2.5 w/w lipid to DNA): 89.0%; % of the luciferase activity obtained from the use of Lipofectamine 2000 (5 w/w lipid to DNA): 94.0%; % of the luciferase activity obtained from the use of Lipofectamine 2000 (10 w/w lipid to DNA): 42.4%; % of the luciferase activity obtained from the use of Lipofectamine 2000 (15 w/w lipid to DNA): 64.7%; % of the luciferase activity obtained from the use of Lipofectamine 2000 (20 w/w lipid to DNA): 62.1%; % of the luciferase activity obtained from the use of Lipofectamine 2000 (25 w/w lipid to DNA): 44.1%; luciferase expression (second part of table, values relative to LIPO2000) (lipid/DNA 2.5 w/w): 89.0; luciferase expression (second part of table, values relative to LIPO2000) (lipid/DNA 5 w/w): 94.0; luciferase expression (second part of table, values relative to LIPO2000) (lipid/DNA 10 w/w): 42.4; luciferase expression (second part of table, values relative to LIPO2000) (lipid/DNA 15 w/w): 64.7; luciferase expression (second part of table, values relative to LIPO2000) (lipid/DNA 20 w/w): 62.1; luciferase expression (second part of table, values relative to LIPO2000) (lipid/DNA 25 w/w): 44.1

Source: patent publication US9006487B2, “Amine-containing lipids and uses thereof” (Massachusetts Institute of Technology, priority 2005, dated 2015)
